Laboratory results from the supplement of paper PMC10307832.

Assays:
Test in all cases: relative viability (nuclei count vs DMSO), 5 days (fraction); higher = more cells survive
[1] = tested on: PC-3 [JPC-3]
Method in brief: (§1)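 Values are medians from duplicate plates. Each reflects relative viability, defined as the nuclei count of treated wells over that of vehicle wells. Lung cancer cell lines in 1536-well plates were pin-tool dosed one day after seeding with one drug alone or with a fixed anchor-drug dose plus five library-drug doses (not always all listed) in √10 steps, then fixed, stained and imaged at 4× after 5 days.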

[2] = tested on: PC-14
Method in brief: as §1

[3] = tested on: NCI-H1650
Method in brief: as §1

[4] = tested on: NCI-H1355
Method in brief: as §1

[5] = tested on: NCI-H1563
Method in brief: as §1

[6] = tested on: NCI-H322M
Method in brief: as §1

[7] = tested on: RERF-LC-KJ
Method in brief: as §1

[8] = tested on: CAL-12T
Method in brief: as §1

[9] = tested on: EKVX
Method in brief: as §1

[10] = tested on: NCI-H2228
Method in brief: as §1

[11] = tested on: ABC-1
Method in brief: as §1

[12] = tested on: COR-L23
Method in brief: as §1

[13] = tested on: HCC-15
Method in brief: as §1

[14] = tested on: NCI-H2405
Method in brief: as §1

[15] = tested on: SW 1573
Method in brief: as §1

[16] = tested on: HCC-827
Method in brief: as §1

[17] = tested on: H3255
Method in brief: as §1

[18] = tested on: NCI-H661
Method in brief: as §1

[19] = tested on: NCI-H520
Method in brief: as §1

[20] = tested on: NCI-H1437
Method in brief: as §1

[21] = tested on: NCI-H1734
Method in brief: as §1

[22] = tested on: NCI-H1651
Method in brief: as §1

COc1cc(N2CCC(C(N)=O)CC2)ccc1Nc1nc(N)c(Cl)c(Nc2ccccc2S(=O)(=O)C(C)C)n1 [HG-5-88-01] + CC(C)C[C@H](NC(=O)[C@H](Cc1ccccc1)NC(=O)c1cnccn1)B(O)O [Bortezomib] (partner 0.002 µM)
relative viability ([1]; first compound 0.04 µM): 0.982
relative viability ([1]; first compound 0.1265 µM): 0.928
relative viability ([1]; first compound 0.4 µM): 0.819
relative viability ([1]; first compound 1.265 µM): 0.849
relative viability ([1]; first compound 4 µM): 0.533
relative viability ([2]; first compound 0.04 µM): 0.837
relative viability ([2]; first compound 0.1265 µM): 0.969
relative viability ([2]; first compound 0.4 µM): 0.864
relative viability ([2]; first compound 1.265 µM): 0.883
relative viability ([2]; first compound 4 µM): 0.316
relative viability ([3]; first compound 0.04 µM): 0.207
relative viability ([3]; first compound 0.1265 µM): 0.219
relative viability ([3]; first compound 0.4 µM): 0.195
relative viability ([3]; first compound 1.265 µM): 0.185
relative viability ([3]; first compound 4 µM): 0.189
relative viability ([4]; first compound 0.04 µM): 1.37
relative viability ([4]; first compound 0.1265 µM): 1.37
relative viability ([4]; first compound 0.4 µM): 1.21
relative viability ([4]; first compound 1.265 µM): 1.14
relative viability ([4]; first compound 4 µM): 0.96
relative viability ([5]; first compound 0.04 µM): 0.827
relative viability ([5]; first compound 0.1265 µM): 0.92
relative viability ([5]; first compound 0.4 µM): 0.925
relative viability ([5]; first compound 1.265 µM): 0.765
relative viability ([5]; first compound 4 µM): 0.855
relative viability ([6]; first compound 0.04 µM): 1.22
relative viability ([6]; first compound 0.1265 µM): 1.04
relative viability ([6]; first compound 0.4 µM): 1.38
relative viability ([6]; first compound 1.265 µM): 1.23
relative viability ([6]; first compound 4 µM): 1.08
relative viability ([7]; first compound 0.04 µM): 1.23
relative viability ([7]; first compound 0.1265 µM): 1.19
relative viability ([7]; first compound 0.4 µM): 1.08
relative viability ([7]; first compound 1.265 µM): 0.992
relative viability ([7]; first compound 4 µM): 0.639
relative viability ([8]; first compound 0.04 µM): 1.16
relative viability ([8]; first compound 0.1265 µM): 0.897
relative viability ([8]; first compound 0.4 µM): 0.837
relative viability ([8]; first compound 1.265 µM): 0.955
relative viability ([8]; first compound 4 µM): 0.579
relative viability ([9]; first compound 0.04 µM): 1.09
relative viability ([9]; first compound 0.1265 µM): 1.02
relative viability ([9]; first compound 0.4 µM): 1.02
relative viability ([9]; first compound 4 µM): 0.854
relative viability ([10]; first compound 0.04 µM): 0.363
relative viability ([10]; first compound 0.1265 µM): 0.478
relative viability ([10]; first compound 0.4 µM): 0.292
relative viability ([10]; first compound 1.265 µM): 0.255
relative viability ([10]; first compound 4 µM): 0.345
relative viability ([11]; first compound 0.04 µM): 0.335
relative viability ([11]; first compound 0.1265 µM): 0.332
relative viability ([11]; first compound 0.4 µM): 0.237
relative viability ([11]; first compound 1.265 µM): 0.321
relative viability ([11]; first compound 4 µM): 0.283
relative viability ([12]; first compound 0.04 µM): 1.06
relative viability ([12]; first compound 0.1265 µM): 1.08
relative viability ([12]; first compound 0.4 µM): 0.854
relative viability ([12]; first compound 1.265 µM): 0.91
relative viability ([12]; first compound 4 µM): 0.896
relative viability ([13]; first compound 0.04 µM): 1
relative viability ([13]; first compound 0.1265 µM): 1.09
relative viability ([13]; first compound 0.4 µM): 0.966
relative viability ([13]; first compound 1.265 µM): 1.02
relative viability ([13]; first compound 4 µM): 0.746
relative viability ([14]; first compound 0.04 µM): 1.01
relative viability ([14]; first compound 0.1265 µM): 0.977
relative viability ([14]; first compound 0.4 µM): 0.929
relative viability ([14]; first compound 1.265 µM): 0.933
relative viability ([14]; first compound 4 µM): 0.946
relative viability ([15]; first compound 0.04 µM): 1.34
relative viability ([15]; first compound 0.1265 µM): 1.08
relative viability ([15]; first compound 0.4 µM): 0.997
relative viability ([15]; first compound 1.265 µM): 0.978
relative viability ([15]; first compound 4 µM): 0.821
relative viability ([16]; first compound 0.04 µM): 1.07
relative viability ([16]; first compound 0.1265 µM): 1.05
relative viability ([16]; first compound 0.4 µM): 1.06
relative viability ([16]; first compound 1.265 µM): 1.14
relative viability ([16]; first compound 4 µM): 0.472
relative viability ([17]; first compound 0.04 µM): 0.748
relative viability ([17]; first compound 0.1265 µM): 0.745
relative viability ([17]; first compound 0.4 µM): 0.75
relative viability ([17]; first compound 4 µM): 0.388
relative viability ([18]; first compound 0.04 µM): 0.838
relative viability ([18]; first compound 0.1265 µM): 0.878
relative viability ([18]; first compound 0.4 µM): 0.726
relative viability ([18]; first compound 4 µM): 0.894
relative viability ([19]; first compound 0.04 µM): 0.45
relative viability ([19]; first compound 0.1265 µM): 0.633
relative viability ([19]; first compound 0.4 µM): 0.304
relative viability ([19]; first compound 1.265 µM): 0.698
relative viability ([19]; first compound 4 µM): 0.546
relative viability ([20]; first compound 0.04 µM): 0.491
relative viability ([20]; first compound 0.1265 µM): 0.477
relative viability ([20]; first compound 0.4 µM): 0.539
relative viability ([20]; first compound 1.265 µM): 0.401
relative viability ([20]; first compound 4 µM): 0.263
relative viability ([21]; first compound 0.04 µM): 0.899
relative viability ([21]; first compound 0.1265 µM): 0.975
relative viability ([21]; first compound 0.4 µM): 0.958
relative viability ([21]; first compound 1.265 µM): 0.868
relative viability ([21]; first compound 4 µM): 0.83
relative viability ([22]; first compound 0.04 µM): 0.844
relative viability ([22]; first compound 0.1265 µM): 0.935
relative viability ([22]; first compound 0.4 µM): 0.941
relative viability ([22]; first compound 1.265 µM): 0.976
relative viability ([22]; first compound 4 µM): 1.03
